Source: publication PMC7614683, “A small molecule PI3Kα activator for cardioprotection and neuroregeneration” (Nature, 2023)
Like-named read-outs stand apart in the source and are kept apart here.

Experiments:
PI3Kα-KO A549 cells = assay: TIRF microscopy of PIP3 reporter, PI3Kα-KO A549; assay type: cell-based, human
Text: Generation of pooled PIK3CA-null A549 cells was outsourced to Synthego Corporation. Briefly, the PIK3CA gene was targeted with synthetic ribonucleoprotein (RNP) complexes including the following single guide RNA (sgRNA) sequence: 5’-[…]-3’. This sequence is located within PIK3CA exon 3 and covers the coding sequence preceding the p110α RAS binding domain, with the Cas9 cut site corresponding to amino acids 156/157 of p110α). In parallel, control cultures were exposed to the Cas9 protein without sgRNA, henceforth referred to as “WT cultures”. Single-cell clones were established from both WT and targeted cultures by limiting dilution, thereby ensuring seeding of maximum 1 cell per well of a 96-well plate. To promote recovery, subcloned cells in 96-wells were cultured in a 1:1 mixture of standard A549 complete medium and conditioned medium. Conditioned medium was prepared from WT cultures 2 days post-passaging by centrifuging the medium at 1000g for 10 min, followed by 0.22 μm PES filtration and storage at 4°C (-80°C for storage exceeding 2 weeks). The medium was replenished every 2-3 days, as gently as possible to prevent cells from dislodging. Once cells reached sub-confluence, they were expanded to 24-well plates and 25 cm[2] flasks, followed by genotyping and cell banking. […]

BRK = BRK (Homo sapiens, UniProt Q13882); assay: SelectScreen kinase profiling, BRK; assay type: biochemical
Sequence of BRK (Q13882 whole entry): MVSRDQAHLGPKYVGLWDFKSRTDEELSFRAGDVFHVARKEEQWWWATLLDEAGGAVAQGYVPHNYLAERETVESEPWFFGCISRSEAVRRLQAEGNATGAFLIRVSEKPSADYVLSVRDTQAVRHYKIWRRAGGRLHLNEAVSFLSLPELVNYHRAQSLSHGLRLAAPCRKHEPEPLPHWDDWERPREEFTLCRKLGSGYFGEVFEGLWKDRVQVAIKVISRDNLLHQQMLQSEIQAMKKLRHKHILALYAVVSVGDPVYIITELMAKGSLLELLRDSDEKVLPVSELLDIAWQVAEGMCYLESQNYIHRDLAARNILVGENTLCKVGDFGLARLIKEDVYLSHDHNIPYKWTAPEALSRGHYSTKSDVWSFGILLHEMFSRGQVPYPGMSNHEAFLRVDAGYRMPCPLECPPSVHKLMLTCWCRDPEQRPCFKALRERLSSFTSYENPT
Method: (§1) 133 protein kinases and 7 lipid kinases were counterscreened, with 1938 used at 1 μM, using the Adapta, Lantha and Z-LYTE assays (SelectScreen Kinase Profiling Service; Thermofisher – experimental details of these assays can be found here: https://www.thermofisher.com/uk/en/home/industrial/pharma-biopharma/drug-discovery-development/target-and-lead-identification-and-validation/kinasebiology/kinase-activity-assays.html. The tree represention in KinMap[59] generated courtesy of Cell Signaling Technology, Inc. (www.cellsignal.com). mTORC1 (mTOR/RAPTOR/LST8) protein complex and ATM kinase and substrates were produced as previously described[57],[60]. Screening of 1938 was conducted using SuperSep Phos-Tag 50 μmol/l 100 x 100 x 6.6 mm 17-well (192-18001/199-18011) gels. For ATM assays, 100 nM ATM was incubated for 30 min at 30°C with 5 μM GST-p53 and 1 mM ATP, in the absence or presence of 200 μM 1938 in ATM Kinase Buffer (50 mM HEPES pH 7.5, 100 mM NaCl, 10% glycerol, 2 mM […], 5 mM MgCl2). As a positive control for ATM activation, the same reaction was carried out with 100 nM ATM/5 μM GST-p53/1 mM ATP in the presence of 100 nM Mre11-Rad50-Nbs1 (MRN) complex, a known activator of ATM[61]. For mTORC1 assays, 50 nM mTORC1 complex (mTOR/LST8/RAPTOR) was incubated for 3 h at 30°C with 15 μM 4E-BP1, 10 mM MgCl2 and 250 μM ATP, in the absence or presence of 200 μM 1938. As a ‘positive’ control, a higher concentration (150 nM) of mTORC1 complex (mTOR/LST8/RAPTOR) was incubated for 3 h at 30°C with 15 μM 4E-BP1, 10 mM MgCl2 and 250 μM ATP. Kinase reactions were quenched by addition of SDS-PAGE Loading Buffer (as per manufacturer’s instructions) and freezing at -20°C before being run on the Phos-tag gels at 150 V for 90 min. Gels were then stained using InstantBlue™ Coomassie, and quantified using BioRad Image Lab Software. Kinase assays were carried out in triplicate.

CAMK1 (CaMK1) = CAMK1 (CaMK1) (Homo sapiens, UniProt Q14012); assay: SelectScreen Adapta; assay type: biochemical; details: 1000 nM, [ATP] 10 μM
Method: as §1

IRAK1 = IRAK1 (Homo sapiens, UniProt P51617); assay: SelectScreen Adapta; assay type: biochemical
Sequence of IRAK1 (P51617 whole entry): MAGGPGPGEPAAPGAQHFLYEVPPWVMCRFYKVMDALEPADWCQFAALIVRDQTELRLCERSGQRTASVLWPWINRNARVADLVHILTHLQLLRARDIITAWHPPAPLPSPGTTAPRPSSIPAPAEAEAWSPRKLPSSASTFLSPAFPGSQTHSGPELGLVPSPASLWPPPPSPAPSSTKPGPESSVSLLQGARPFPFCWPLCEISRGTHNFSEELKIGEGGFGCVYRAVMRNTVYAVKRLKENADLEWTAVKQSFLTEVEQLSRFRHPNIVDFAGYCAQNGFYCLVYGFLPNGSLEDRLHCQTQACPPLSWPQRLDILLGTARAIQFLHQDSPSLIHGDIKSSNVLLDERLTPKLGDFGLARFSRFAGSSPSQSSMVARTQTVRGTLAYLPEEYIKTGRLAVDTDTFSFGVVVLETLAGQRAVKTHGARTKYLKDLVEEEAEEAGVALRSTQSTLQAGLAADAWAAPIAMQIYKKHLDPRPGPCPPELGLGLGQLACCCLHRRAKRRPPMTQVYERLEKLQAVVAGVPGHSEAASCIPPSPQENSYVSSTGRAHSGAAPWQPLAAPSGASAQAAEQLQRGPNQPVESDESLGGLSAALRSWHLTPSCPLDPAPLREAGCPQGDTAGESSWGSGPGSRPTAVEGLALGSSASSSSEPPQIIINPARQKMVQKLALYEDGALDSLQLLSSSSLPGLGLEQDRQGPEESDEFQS
Method: as §1

PI4KB (PI4K beta) = PI4KB (PI4K beta) (Homo sapiens, UniProt Q9UBF8); assay: SelectScreen Adapta; assay type: biochemical
Sequence of PI4KB (PI4K beta) (Q9UBF8 whole entry): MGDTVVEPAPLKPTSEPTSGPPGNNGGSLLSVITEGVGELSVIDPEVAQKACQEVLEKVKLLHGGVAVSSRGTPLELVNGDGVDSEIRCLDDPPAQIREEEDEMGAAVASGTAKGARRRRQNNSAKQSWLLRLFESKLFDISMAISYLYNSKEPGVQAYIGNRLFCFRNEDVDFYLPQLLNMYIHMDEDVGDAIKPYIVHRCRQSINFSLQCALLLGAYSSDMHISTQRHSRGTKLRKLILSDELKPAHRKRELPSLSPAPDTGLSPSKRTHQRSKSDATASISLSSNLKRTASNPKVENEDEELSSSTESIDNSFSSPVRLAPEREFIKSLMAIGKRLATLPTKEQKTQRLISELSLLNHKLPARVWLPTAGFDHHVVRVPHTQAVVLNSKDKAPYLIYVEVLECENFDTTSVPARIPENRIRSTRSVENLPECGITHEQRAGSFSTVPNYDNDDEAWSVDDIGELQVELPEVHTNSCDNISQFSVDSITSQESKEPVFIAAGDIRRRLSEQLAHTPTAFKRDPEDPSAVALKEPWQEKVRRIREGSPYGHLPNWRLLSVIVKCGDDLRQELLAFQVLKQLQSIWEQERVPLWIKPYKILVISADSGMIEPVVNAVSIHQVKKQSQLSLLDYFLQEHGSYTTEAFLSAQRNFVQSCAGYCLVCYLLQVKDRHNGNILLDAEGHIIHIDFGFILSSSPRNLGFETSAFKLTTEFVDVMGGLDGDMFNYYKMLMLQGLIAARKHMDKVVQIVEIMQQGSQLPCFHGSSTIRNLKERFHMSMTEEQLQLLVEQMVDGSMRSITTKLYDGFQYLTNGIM
Method: as §1

**Q.** Which results are given for CCN1CCN(c2ccc(Nc3cc(Nc4cccc5c4N(C(C)=O)CC5)ccn3)cc2)CC1 [Compound 1938]?
**A.** plasma membrane PIP3 (biosensor) (PI3Kα-KO A549 cells): not seen; inhibition at 1 µM (BRK; read-out: % Inhibition Point 1): 55%; inhibition at 1 µM (BRK; read-out: % Inhibition Point 2): 56%; inhibition at 1 µM (BRK; read-out: % Inhibition mean): 56%; inhibition at 1 µM (CAMK1 (CaMK1); read-out: % Inhibition Point 1): 26%; inhibition at 1 µM (CAMK1 (CaMK1); read-out: % Inhibition Point 2): 23%; inhibition at 1 µM (CAMK1 (CaMK1); read-out: % Inhibition mean): 25%; inhibition at 1 µM (IRAK1; read-out: % Inhibition Point 1): 29%; inhibition at 1 µM (IRAK1; read-out: % Inhibition Point 2): 20%; inhibition at 1 µM (IRAK1; read-out: % Inhibition mean): 25%; inhibition at 1 µM (PI4KB (PI4K beta); read-out: % Inhibition Point 1): -1.1%; inhibition at 1 µM (PI4KB (PI4K beta); read-out: % Inhibition Point 2): 0.786%; inhibition at 1 µM (PI4KB (PI4K beta); read-out: % Inhibition mean): -0.157%
